Columns and labels:
E. faecalis MurD [1] = biological target: T1, E. faecalis MurD (Enterococcus faecalis, UniProt O07108, A218V/A300V/N165D/T307K); assay: stability of E. faecalis Mur D in DMSO; assay type: biochemical; details: DMSO concentration up to 5%, FIG. 4
[2] = test system: Staphylococcus aureus Mur D enzyme; assay: salt activation of S. aureus MurD; assay type: biochemical; details: FIG. 2
E. faecalis MurD [3] = biological target: T1, E. faecalis MurD; assay type: biochemical; details: FIG. 1 / FIG. 3
E. coli enzyme (MurD) = E. coli enzyme (MurD) (Escherichia coli, UniProt P14900); details: FIG. 3
E. coli enzyme (MurD), sequence (P14900 whole entry): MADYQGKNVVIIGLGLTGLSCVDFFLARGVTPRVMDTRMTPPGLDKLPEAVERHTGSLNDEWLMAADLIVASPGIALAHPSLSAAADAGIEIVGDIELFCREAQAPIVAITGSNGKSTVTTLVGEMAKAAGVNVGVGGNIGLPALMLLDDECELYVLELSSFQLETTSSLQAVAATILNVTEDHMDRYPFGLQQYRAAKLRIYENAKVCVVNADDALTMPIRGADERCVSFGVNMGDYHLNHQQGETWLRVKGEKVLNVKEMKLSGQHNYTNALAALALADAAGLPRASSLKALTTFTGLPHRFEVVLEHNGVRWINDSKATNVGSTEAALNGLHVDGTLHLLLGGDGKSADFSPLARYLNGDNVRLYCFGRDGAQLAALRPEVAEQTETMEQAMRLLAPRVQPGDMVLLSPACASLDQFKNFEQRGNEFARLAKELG

T1 sequence (O07108 whole entry N165D/A218V/A300V/T307K): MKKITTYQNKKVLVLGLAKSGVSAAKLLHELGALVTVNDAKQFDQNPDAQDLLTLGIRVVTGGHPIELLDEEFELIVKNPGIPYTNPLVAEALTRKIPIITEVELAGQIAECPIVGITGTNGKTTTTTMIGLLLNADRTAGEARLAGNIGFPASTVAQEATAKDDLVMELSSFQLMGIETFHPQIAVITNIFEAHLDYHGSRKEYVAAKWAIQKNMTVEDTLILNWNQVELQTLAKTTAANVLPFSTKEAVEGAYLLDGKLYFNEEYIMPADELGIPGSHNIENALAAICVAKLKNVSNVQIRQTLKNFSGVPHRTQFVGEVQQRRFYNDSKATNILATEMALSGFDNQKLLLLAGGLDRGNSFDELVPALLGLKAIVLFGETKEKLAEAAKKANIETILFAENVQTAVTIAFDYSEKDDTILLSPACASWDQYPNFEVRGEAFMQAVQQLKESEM

Compound	activation of S. aureus Mur D enzyme by cations [2]	effect of salt on E. faecalis MurD enzyme activity (E. faecalis MurD [3])	also measured
C[S+](C)[O-] [DMSO, dimethylsulfoxide]			effect of DMSO on E. faecalis MurD (E. faecalis MurD [1]): not affected
[K+] [K^+, potassium]	activated		
N [NH4^+, ammonium]	activated		
O=S(=O)(O)O [SO4-ions]		inhibitor	
N.O=CO [ammonium formate]		independent	dependence of E. coli enzyme activity on presence of salt (E. coli enzyme (MurD)): dependent

— patent US20070202548A1, “SCREENING ASSAY TO IDENTIFY INHIBITORS OF THE MURD ENZYME USING AN ACTIVATOR-I[…] ENZYME” (priority 2002, published 2007)
